This series in a line: Thermal stability test (Test Example 1): heating at 100° C. for 5 hours, residual rate by HPLC. To be noted: heated at 100° C.; for residual rate: amount before heating set at 100%. The format is physicochemical. The procedure:
The thermal stability of (R)-α-lipoic acid, (R)-lipoic acid trisulfide, and compound (12-1) was evaluated as follows. Each compound was placed in a round-bottom flask and heated at 100° C. for 5 hours. Every hour, a sample was taken from the flask, dissolved in a methylene chloride/methanol mixture (1:1), and subjected to HPLC. The residual rate over time was calculated from the area values of each component.
In FIG. 1, the residual rate on the vertical axis was calculated from the degree of decomposition over time for each sample, with the amount before heating set at 100%. […] In addition, (R)-α-lipoic acid and (R)-lipoic acid trisulfide melted immediately after the start of heating, and insoluble by-products were formed. […] This is presumed to be due to the high melting point of compound (12-1) and suppression of intermolecular polymerization. From the above, it was confirmed that the compound or salt represented by Formula (1) has higher thermal stability than (R)-α-lipoic acid and (R)-lipoic acid trisulfide.

Bounds are passed on as bounds.

Turning to `O=C(O)CCCC[C@@H]1CCSSS1` [(R)-lipoic acid trisulfide], the residual rate result (after 5 hours) is “about 70%”. In addition, the decomposition entry (at 2 hours) is “no decomposition”. `O=C(O)CCCC[C@@H]1CCSS1` [(R)-α-lipoic acid]: the residual rate result is recorded as “about 50%” (after 5 hours) and “below 60%” (at 1 hour). Where the note is “after 5 hours”, `O=C(CCCC[C@@H]1CCSSS1)N1CCN(C(=O)CCCC[C@@H]2CCSSS2)CC1` [Compound (12-1)] returned a residual rate of no less than 95%.

Values taken from patent US20260209201A1, “TRISULFIDE COMPOUND AND CLATHRATE THEREOF” (Kyowa Pharma Chemical Co., Ltd., priority 2022, published 2026).
